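Each compound was tested at five concentrations against cells in 96-well plates for 48 hours. GI50 marks 50% less growth. At the TGI there is no net growth.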
Legend:
Experiment in all cases: NCI-60 cell line screen, 48 h
786-0 renal = system: 786-0 renal
A498 renal = system: A498 renal
CAKI-1 renal = system: CAKI-1 renal
COLO 205 colon = system: COLO 205 colon
UACC-257 melanoma = system: UACC-257 melanoma
HL-60(TB) leukemia = system: HL-60(TB) leukemia
HOP-92 NSCLC = system: HOP-92 NSCLC
LOX IMVI melanoma = system: LOX IMVI melanoma
SF-539 CNS = system: SF-539 CNS
MDA-MB-231 breast = system: MDA-MB-231 breast

Structure (SMILES)	TGI (786-0 renal) [µM]	TGI (A498 renal) [µM]	TGI (CAKI-1 renal) [µM]	TGI (COLO 205 colon) [µM]	TGI (UACC-257 melanoma) [µM]	TGI (HL-60(TB) leukemia) [µM]	TGI (HOP-92 NSCLC) [µM]	TGI (LOX IMVI melanoma) [µM]	TGI (SF-539 CNS) [µM]	GI50 (786-0 renal) [µM]	GI50 (A498 renal) [µM]	GI50 (COLO 205 colon) [µM]	GI50 (HL-60(TB) leukemia) [µM]	GI50 (HOP-92 NSCLC) [µM]	GI50 (LOX IMVI melanoma) [µM]	GI50 (MDA-MB-231 breast) [µM]	TGI (MDA-MB-231 breast) [µM]	GI50 (SF-539 CNS) [µM]	GI50 (UACC-257 melanoma) [µM]	GI50 (CAKI-1 renal) [µM]
CN(C)c1ccc(/C=C/C(=O)c2ccccc2)cc1Br	31.8	> 100	32.9	34.5	52.6	–	–	–	–	–	–	–	–	–	–	–	–	–	–	–
COc1ccc2c(c1)CCc1cnn(C3OC(COC(C)=O)C(OC(C)=O)C(OC(C)=O)C3OC(C)=O)c1-2 (configuration not stated)	75.6	> 100	> 100	> 100	> 100	> 100	51.5	> 100	> 100	–	–	–	–	–	–	–	–	–	–	–
COC(=O)CCC(=O)CC(=O)C(=O)Nc1ccc(F)cc1	> 100	> 100	> 100	> 100	> 100	–	> 100	> 100	> 100	–	–	–	–	–	–	–	–	–	–	–
COC(=O)CSc1ccccc1	30.1	> 100	> 100	> 100	> 100	> 100	99.1	> 100	> 100	–	–	–	–	–	–	–	–	–	–	–
C#CC[C@@H]1C[C@]2(C)[C@H]3CC[C@@H]4[C@H]5[C@H](C(=C)C)CC[C@]5(C(=O)O)CC[C@@]4(C)[C@]3(C)CC[C@H]2C(C)(C)[C@H]1O	3.4	4.19	–	4.68	13.4	> 100	4.18	8.67	7.88	1.71	1.88	2.09	2.57	1.7	2.63	2.32	6.11	2.67	3.73	–
CNc1nnnn1C1OC(CO)C(O)C1O (configuration not stated)	> 100	> 100	> 100	> 100	> 100	–	–	> 100	> 100	–	–	–	–	–	–	–	–	–	–	–
C[C@]12CCC3[C@@H](C[C@H]4OC(=O)[C@@]35CCC(=O)C=C45)C1CCC2=O (some centres not stated)	> 100	–	–	> 100	> 100	> 100	> 100	–	> 100	–	–	–	–	–	–	–	–	–	–	–
COc1c(OC(C)=O)c(OC(C)=O)cc2c1-c1ccc(OC)c(=O)cc1C(NC(C)=O)CC2 (configuration not stated)	> 100	2.48	> 100	0.133	> 100	< 0.0103	–	> 100	0.173	–	–	–	–	–	–	–	> 100	–	–	–
CC1(C)CC[C@]2(C(=O)n3ccnc3)CC[C@]3(C)[C@H](C(=O)C=C4[C@@]5(C)C=C(C#N)C(=O)C(C)(C)[C@@H]5CC[C@]43C)[C@@H]2C1	0.0199	0.28	0.0393	> 100	–	–	0.102	–	< 0.0336	< 0.01	0.112	0.0139	–	0.0221	–	0.0184	0.0682	< 0.0114	0.0719	< 0.01
Cc1cc2c(cc1C)N1Cc3c(ccc(C)c3C)N(C2)C1 (tested in a mixture with another compound)	> 100	–	–	> 100	–	> 100	–	> 100	> 100	–	–	–	–	–	–	–	–	–	–	–
O=C1C(c2ccc([N+](=O)[O-])cc2)=[N+]([O-])c2ccccc21	> 100	–	> 100	30.1	–	71.9	77.4	60.9	> 100	–	–	–	–	–	–	–	–	–	–	–
CC(C)(C)C(=O)OCOP(=O)(OCOC(=O)C(C)(C)C)C1CCCN(OC(=O)c2ccccc2)C1=O (configuration not stated)	26.4	0.832	–	15.2	22.4	–	35.8	20.9	18.9	0.61	0.283	2.39	–	1.25	2.53	0.716	14.2	3.72	3.43	–
Cc1cc2cc(Cl)ccc2nc1C(=O)c1ccccc1	> 100	–	> 100	> 100	> 100	–	–	> 100	> 100	–	–	–	–	–	–	–	–	–	–	–
COc1cc(C2c3cc4c(cc3[C@H](NC(=O)c3cccs3)C3COC(=O)[C@H]23)OCO4)cc(OC)c1OC (some centres not stated)	21.7	0.0481	–	0.0308	> 100	< 0.0251	70.3	> 41	< 0.0141	–	–	–	–	–	–	–	0.0128	–	–	–
O=C(Nc1ccc(Cl)c(Cl)c1)C(=O)Nn1c(=S)[nH]c2ccccc2c1=O	> 100	> 100	> 100	> 100	> 100	> 100	> 100	> 100	> 100	–	–	–	–	–	–	–	–	–	–	–
COc1cc(-c2cc(/C=C/C(=O)c3ccc4c(c3)OCO4)[nH]n2)cc(OC)c1OC	5.82	15.4	> 100	3.85	40.3	6.36	–	3.78	5.73	2.33	2.76	1.87	2.17	–	1.82	3.5	> 100	2.07	2.46	5.51
O=C(N/N=C/c1coc2ccc(Cl)cc2c1=O)c1ccncc1	> 100	–	> 100	> 100	> 100	–	> 100	> 100	> 100	55.3	–	> 100	–	93.8	38.6	80.6	> 100	75.9	56.8	74.1
O=C(CCCCC(=O)N/N=C\c1ccccc1Cl)N/N=C\c1ccccc1Cl	74.9	38.1	–	> 100	> 100	–	19.2	> 100	> 100	14.7	3.13	2.91	–	1.95	> 100	12.5	55.7	16.9	2.54	–
CCCn1cc(C2=C(c3cn(C)c4ccccc34)C(=O)NC2=O)c2ccccc21	> 25	4.77	> 23.2	> 7.08	> 25	3.64	–	11.2	2.8	1.62	0.837	0.889	0.835	–	2.41	3.91	16.9	0.689	1.8	0.937
C=CCCC(O)c1ccc(C(O)CCCCCCCCCCCC)o1 (configuration not stated)	31.5	–	34.8	> 100	40.1	–	51.2	29.7	37.5	17.6	–	40.5	–	25.5	16.2	20.1	38.5	19.7	19.2	18.1

Structure (SMILES)	TGI (786-0 renal) [µM]	TGI (A498 renal) [µM]	TGI (CAKI-1 renal) [µM]	TGI (COLO 205 colon) [µM]	TGI (UACC-257 melanoma) [µM]	TGI (HL-60(TB) leukemia) [µM]	TGI (HOP-92 NSCLC) [µM]	TGI (LOX IMVI melanoma) [µM]	TGI (SF-539 CNS) [µM]	GI50 (786-0 renal) [µM]	GI50 (A498 renal) [µM]	GI50 (COLO 205 colon) [µM]	GI50 (HL-60(TB) leukemia) [µM]	GI50 (HOP-92 NSCLC) [µM]	GI50 (LOX IMVI melanoma) [µM]	GI50 (MDA-MB-231 breast) [µM]	TGI (MDA-MB-231 breast) [µM]	GI50 (SF-539 CNS) [µM]	GI50 (UACC-257 melanoma) [µM]	GI50 (CAKI-1 renal) [µM]
CCOC(=O)C1c2[nH]c3ccccc3c2CCN1C(=O)c1ccco1 (configuration not stated)	> 10	> 10	> 10	> 10	> 10	> 10	> 10	–	> 10	–	–	–	–	–	–	–	> 10	–	–	–
O=C1OC(c2ccccc2)C2CC3CC4(CCC3CN12)OCCO4 (configuration not stated)	> 100	> 100	> 100	> 100	> 100	> 100	> 100	> 100	> 100	–	–	–	–	–	–	–	–	–	–	–
O=c1oc2c3ccc4ccccc4c3n(CCN3CCOCC3)c2c2ccccc12	> 100	–	> 100	> 100	> 100	> 100	> 100	> 100	> 100	–	–	–	–	–	–	–	–	–	–	–
Cc1cc(Cl)ccc1NC(=O)/C(Cl)=C(/Cl)C(=O)O	51.7	–	37.6	78	36.1	> 100	54.5	43	50.9	–	–	–	–	–	–	–	47.8	–	–	–
COc1ccc(CN2C(=O)C(Cc3cc(OC)c(OC)c(C)c3OC)N(C(=O)OC(C)C)C(=O)/C2=C/c2cc(OC)c(OC)c(C)c2OC)cc1 (configuration not stated)	> 100	> 100	> 100	> 100	> 100	> 100	> 100	> 100	> 100	–	–	–	–	–	–	–	–	–	–	–
CN(C)c1ccccc1CC(c1c[nH]c2ccccc12)c1c[nH]c2ccccc12	25.4	31.1	16.3	11.3	31.8	25.3	–	24.4	31	–	–	–	–	–	–	–	–	–	–	–
COc1ccc(NC(=O)CC/C(CC(=O)c2ccccc2Cl)=N\Nc2nnc(C)n2N)cc1	> 100	–	> 100	> 100	> 100	> 100	> 100	> 100	> 100	–	–	–	–	–	–	–	–	–	–	–
COCC1C(=O)c2cc3c(cc2C12C=CC1(C=C2)OCCO1)OCO3 (configuration not stated)	4.54	–	29.8	38	32.6	5.97	29.6	–	29.3	–	–	–	–	–	–	–	–	–	–	–
Cc1cc(C)nc(NS(=O)(=O)c2ccc(NC(=O)c3cccc4c(Nc5ccc(S(=O)(=O)Nc6nc(C)cc(C)n6)cc5)c5ccccc5nc34)cc2)n1	46.8	35.9	51.6	45.4	43.2	48.9	45.1	38.7	32.6	–	–	–	–	–	–	–	–	–	–	–
Nc1nc(=O)n(C2CC(O)C(O)C(CO)O2)cc1F (configuration not stated)	> 100	> 100	–	> 100	> 100	> 100	–	> 100	> 100	–	–	–	–	–	–	–	–	–	–	–
COc1ccc(C(=O)/C(=N/Nc2ccccc2)c2ccc(OC)cc2)cc1	> 100	–	> 100	> 100	> 100	–	–	–	> 100	–	–	–	–	–	–	–	–	–	–	–
CCCCCCCCCCCCOC1C(CNC(=O)C2OC3OC(C)(C)OC3C2NC(=O)CN2CCN(c3ccccn3)CC2)OC2OC(C)(C)OC21 (configuration not stated)	3.22	2.97	4.59	5.01	3.49	–	3.18	3.53	3.44	1.79	1.6	2.33	–	1.7	1.88	1.67	3.14	1.93	1.81	2.27
COC(=O)NNc1c([N+](=O)[O-])cnn(-c2ccccc2)c1=O	7.39	78.2	8.24	6.02	6.33	3.06	3.9	3.2	8.22	–	–	–	–	–	–	–	–	–	–	–
N#Cc1ccc(/C=N\N2C(=O)c3ccccc3C2=O)cc1	> 100	> 100	> 100	–	> 100	> 100	> 100	> 100	> 100	–	–	–	–	–	–	–	–	–	–	–
[N-]=[N+]=Nc1ccccc1-[n+]1noc([O-])c1Br	> 100	–	> 100	> 100	> 100	> 100	> 100	–	> 100	–	–	–	–	–	–	–	–	–	–	–
CCOc1cc(C=O)c2c(ccc3ccc(OC)c(OC)c32)c1OC	> 100	–	> 100	> 100	> 100	> 100	> 100	> 100	–	–	–	–	–	–	–	–	> 100	–	–	–
O=C(c1ccccc1)c1ccc(Cl)c([N+](=O)[O-])c1	99.2	30.9	20.2	19.9	21.6	6.58	–	6.11	19	21	16	5.01	2.56	–	2.43	3.61	11.7	5.1	6.26	5.5
COc1ccc2nc3cc(Cl)ccc3c(NCCC(=O)OCC(O)C(O)C(O[C@H](C)C(=O)NC(C)C(=O)NC(CCC(N)=O)C(=O)OCc3ccccc3)C(C=O)NC(C)=O)c2c1 (some centres not stated)	31.9	37.7	40.9	32.6	> 100	56.3	31.9	–	37.1	–	–	–	–	–	–	–	–	–	–	–
Cn1c(=O)nc2n(-c3ccc(F)cc3)c3ccccc3nc-2c1=O	> 100	93.4	73.3	22.1	28.5	–	–	–	46.5	–	–	–	–	–	–	–	–	–	–	–

— PubChem BioAssay (NCI)
